Results from patent US20200129582A1, “NOVEL PEPTIDES AND PEPTIDOMIMETICS” (UNIVERSITY OF AUCKLAND, priority 2016, published 2020).
Where two headings read alike, the source gives them in different places.

Tests used:
[1] = molecular target: T1, coupled gap junction channels in hCMVEC cells (Homo sapiens, UniProt P17302); assay type: cell-based
T1 construct: A confluent monolayer of hCMVECs was pre-incubated in Peptide5; endogenous in cells; host or cells: hCMVEC
Procedure: (§1) The hCMVEC cells were plated in 1 μg/cm^2 collagen I (Gibco) 12-well plate at a density of 0.4×10^6 cells per well, and cultured overnight. A confluent monolayer of hCMVECs was pre-incubated in Peptide5 (5-100 μM) dissolved in culture medium for 2 hours or 24 hours. CBX at a concentration of 100 μM was used as a positive control. Cells were washed three times with phosphate buffered saline (PBS) without Ca^2+ or Mg^2+. The cells were then incubated in 0.05% Lucifer Yellow (LY) (Sigma), a fluorescent dye that is transferred through coupled gap junction channels (el-Fouly et al., 1987, Experimental cell research 168:422-430), +/−Peptide5 dissolved in PBS, and scrape-wounded with a size 10 carbon steel surgical blade (Swann-Morton, England). Following 5-minute incubation at 37° C. in 95% O2 and 5% CO2 without light, the 0.05% LY solution was removed. Cells were rinsed four times with PBS with Ca^2+ or Mg^2+, and then fixed in 4% paraformaldehyde (PFA) in PBS at pH 7.4 for 10 minutes at room temperature. Cells were then washed 3 times in PBS to remove PFA before fluorescent imaging. Fluorescent images were visualised using a Nikon TE2000E inverted fluorescent microscope (10× magnification, 0.3 numerical aperture), and captured using a Digital Sight CCD camera and Eclipse Net software (Nikon). Three images within each well from three independent experiments were taken for analysis and the total number of cells showing dye uptake from those that had been loaded were counted manually by masked observers.
as §1, with “1987),” for “1987, Experimental cell research 168:422-430),”

[2] = molecular target: T2, Connexin43 plaques in ARPE-19 cells (Homo sapiens, UniProt P17302); experiment: Immunocytochemistry and quantification of Cx43 plaques; assay type: cell-based; conditions: for total Connexin43 expression reduced by, relative to the control: 500 μM; for Connexin43 labelling per cell compared to untreated control (in words): 2- or 6-hour treatment, Peptide5 50-500 μM, LaCl3 and CBX 500 μM; for distribution of Connexin43 plaques: Peptide5 500 μM, FIG. 1A
T2 construct: a cell line with high endogenous expression of connexin43; endogenous in cells; host or cells: ARPE-19
Procedure: (§2) ARPE-19 cells were grown until confluent in 8-well glass chamber-slides (BD Falcon). Confluent monolayers of ARPE-19 cells were incubated at a final concentration of 50 to 500 μM Peptide5, 500 μM LaCl3 and 500 μM CBX in culture medium for 2 or 6 hours. Cells were fixed in 4% PFA (ProSciTech) at pH 7.4 for 10 min at room temperature, permeabilized with 0.05% Triton-X100 in PBS, and incubated in 10% normal goat serum to block non-specific labelling. Cells were rinsed three times with PBS containing 0.1 mM CaCl2 between each fixation, permeabilization, and blocking steps. Connexin43 polyclonal rabbit antibody (C6219, Sigma, 1:2000) was applied overnight, followed by a goat anti-rabbit Alexa Fluor® 568 secondary antibody (Invitrogen, 1:200) for 45 minutes. Nuclei were counterstained with DAPI (Invitrogen) at 10,000-fold dilution for 5 mins, and mounted with Citifluor™ mounting medium. Images were visualised and captured using an oil immersion lens (60× magnification, 1.35 numerical aperture) on an Olympus FV1000 upright confocal laser scanning microscope and Olympus FV10-ASW 4.0 software. The Transfluor feature in MetaXpress® Image acquisition and analysis software (Version 5.3.0.1, Molecular Devices) was used to quantify the total area of Connexin43 plaques per image.
as §2

T2 sequence (P17302 2-382 limits assumed): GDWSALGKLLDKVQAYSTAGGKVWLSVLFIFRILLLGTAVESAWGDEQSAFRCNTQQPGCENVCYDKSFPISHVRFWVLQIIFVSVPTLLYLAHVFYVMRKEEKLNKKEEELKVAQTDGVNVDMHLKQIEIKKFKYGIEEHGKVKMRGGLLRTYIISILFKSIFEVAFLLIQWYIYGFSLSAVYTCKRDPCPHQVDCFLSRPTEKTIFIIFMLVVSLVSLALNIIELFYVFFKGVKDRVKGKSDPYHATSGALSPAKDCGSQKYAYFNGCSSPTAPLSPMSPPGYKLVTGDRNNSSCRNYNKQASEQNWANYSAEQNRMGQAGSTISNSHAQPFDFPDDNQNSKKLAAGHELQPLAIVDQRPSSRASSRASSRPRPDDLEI
T1 sequence (P17302 2-382 limits assumed): as above

| Compound | LY positive cells compared to the control ([1]; hCMVEC, 100 μM, 2-hour exposure, FIG. 2A) [%] | LY dye transfer, % of the untreated control ([1]; hCMVEC, 100 μM, 2-hour exposure, FIG. 5, untreated control 100±4.5%) [%] | LY dye transfer compared to native Peptide5 (in words) ([1]; hCMVEC, 100 μM, FIG. 2) | LY dye transfer compared to untreated control (in words) ([1]; hCMVEC, 100 μM, FIG. 2) | total Connexin43 expression reduced by, relative to the control ([2]; 2-hour exposure) [%] | total Connexin43 expression reduced by, relative to the control ([2]; after 6 hours) [%] | Connexin43 labelling per cell compared to untreated control (in words) [2] | LY dye transfer compared to untreated control (in words) [1] | LY dye transfer, % of the untreated control [1] [%] | LY positive cells compared to the control [1] [%] | distribution of Connexin43 plaques ([2]; 2-hour exposure) | distribution of Connexin43 plaques ([2]; 6-hour exposure) |
| --- | --- | --- | --- | --- | --- | --- | --- | --- | --- | --- | --- | --- |
| CC1(C)[C@@H](OC(=O)CCC(=O)O)CC[C@]2(C)[C@H]3C(=O)C=C4[C@@H]5C[C@@](C)(C(=O)O)CC[C@]5(C)CC[C@@]4(C)[C@]3(C)CC[C@@H]12 [CBX, Carbenoxolone] | 16.3±1.1 | 15.3±1.8 | significantly more than the native Peptide5 | significantly reduced | 30.0±8.2 | 53.4±8.1 | significant reduction |  |  |  |  |  |
| VDCFLSRPTEKT [Peptide5] |  |  |  |  |  |  | no significant difference | significantly attenuated LY dye transfer | 79.4±3.9 | 56.2±2.6 | patterns of cytoplasmic streaming | fragmented |
